Literature values, collected in US20060105068A1, “Dietary supplement formulations containing Hoodia gordonii” (priority 2003, published 2006).

How the values were obtained:
[1] = United States; therapeutic range; aspirin and associated compounds
[2] = after fifteen weeks; 1200 calorie/day diet
[3] = rats

## CC(=O)OC1CC[C@@]2(C)C(=CC(=O)[C@@H]3[C@@H]2CC[C@]2(C)C(=O)CC[C@@H]32)C1 (stereo partly drawn) [Formula 7-Keto, 3-acetyl-7-oxo-dehydroepiandrosterone]
8-week treatment period
  body weight, body mass index (BMI), and waist and hip circumference versus placebo: statistically significant reductions
  tolerability / adverse events: well tolerated and no serious adverse events were reported
human, in vivo
  effect on testosterone levels: does not increase testosterone levels

## CC(=O)Oc1ccccc1C(=O)O [aspirin]
[1]
  people who die each year: 7,600

## CCN[C@@H](C)Cc1cccc(C(F)(F)F)c1 [dexfenfluramine]
[2]
  weight lost: 15.2+/−9.5 lbs

## O=C(O[C@@H]1Cc2c(O)cc(O)cc2O[C@@H]1c1cc(O)c(O)c(O)c1)c1cc(O)c(O)c(O)c1 [epigallocatechin gallate]
[3]
  loss of body weight: up to 21%
[3]; after seven days of injections
  decrease in appetite: 60%

## NC(Cc1cc(I)c(Oc2cc(I)c(O)c(I)c2)c(I)c1)C(=O)O (stereo not drawn) [throxine]
Cytochrome P450; when throxine is increased
  reduction in CYP450: 60-80%

## Naringinine [Naringinines]
Cytochrome P450
  effect on cytochrome P450 enzymes: inhibit
